Measured values from patent publication US7101537B2, “Tricyclic quinoxaline and quinoline derivatives as a UV filter” (Merck Patentgesellschaft, priority 2001, dated 2006).

Assay: maxima of UV-A and UV-B absorption of quinoxaline derivatives in 2-propanol
Format: physicochemical
Settings: 1 mg of substance per 100 ml of solvent; for UV-A (400 320 nm) Max. abs.: absorbance at UV-A maximum; for UV-A (400 320 nm) λ[nm]: wavelength of UV-A maximum; for UV-B (280 320 nm) Max. abs.: absorbance at UV-B maximum; for UV-B (280 320 nm) λ[nm]: wavelength of UV-B maximum
Description: The measurement was carried out in 2-propanol at a concentration of 1 mg of substance per 100 ml of solvent.

| UV-A (400 320 nm) Max. abs. | UV-A (400 320 nm) λ[nm] | SMILES | UV-B (280 320 nm) Max. abs. | UV-B (280 320 nm) λ[nm] |
| --- | --- | --- | --- | --- |
| 0.7037 | 358.0 | FC(F)(F)c1cc(-c2nc3nc4ccccc4nc3[nH]2)cc(C(F)(F)F)c1 |  |  |
| 0.5227 | 328.0 | c1ccc2nc3[nH]cnc3nc2c1 |  |  |
| 0.5381 | 338.0 | c1ccc2nc3[nH]ccc3nc2c1 |  |  |
| 0.7158 | 367.0 | c1ccc(-c2cc3nc4ccccc4nc3[nH]2)cc1 | 0.8710 | 268.0 |
| 0.3685 | 358.0 | O=C(O)c1ccc(-n2c(-c3ccccc3)cc3nc4ccccc4nc32)cc1 |  |  |
| 0.4067 | 359.0 | CC(=O)c1ccc(-n2c(-c3ccccc3)cc3nc4ccccc4nc32)cc1 |  |  |
| 0.6290 | 330.0 | CC(C)(C)c1nc2nc3ccccc3nc2[nH]1 |  |  |
| 0.4875 | 327.5 | FC(F)(F)c1nc2nc3ccccc3nc2[nH]1 |  |  |
| 0.5824 | 327.5 | Cc1nc2nc3ccccc3nc2[nH]1 |  |  |

| SMILES | UV-A (400 320 nm) Max. abs. | UV-A (400 320 nm) λ[nm] | UV-B (280 320 nm) Max. abs. | UV-B (280 320 nm) λ[nm] |
| --- | --- | --- | --- | --- |
| CC(=O)c1ccc(-n2c([SiH2]C(C)C)cc3nc4ccccc4nc32)cc1 | 0.5774 | 403.0 | 0.4246 | 318.0 |
